The values that follow come from patent US20090124688A1, “Prostaglandin reductase inhibitors” (priority 2006, published 2009).

Data set [1] has as its target T1, PGR-2 (Mus musculus, UniProt Q8VDQ1).
T1 construct: GST (N); made in house; host or cells: E. coli
In words: PGR-2 enzymatic activity: substrate specificity and kinetics. Type of data set: biochemical. Particulars: for specific activity with PGR-2 (substrate specificity): 15-keto PGE2 replaced with the substrate, 0.5 mM NADPH, 2 hours at 37° C.; for reduction catalyzed by PGR-2 (kinetics studies): recombinant PGR-2, NADPH cofactor. The method, then:
Mouse PGR-2 was recombinantly expressed in E. coli as a GST fusion protein following standard procedures. The recombinant PGR-2 protein thus obtained was used to determine substrate specificity and enzymatic kinetics.
Substrate specificity of PGR-2 was determined using the just-described procedure, except that 15-keto PGE2 was replaced with each of six prostaglandin substrates, each of three downstream metabolites, or leukotriene B4. The substrates were purchased from Cayman Chemical Company (Michigan, USA).
Unlike PGR/LTB4DH, PGR-2 used NADPH as a cofactor much more efficiently than NADH.
The substrate was 15-keto prostaglandin E1, 15-keto prostaglandin E2, 15-keto prostaglandin F1α, 15-keto prostaglandin F2α, 15-keto-fluprostenol isopropyl ester, or 15-keto-fluprostenol, which were purchased from Cayman Chemical Company (Michigan, USA). […] Absorbance at 490 nm was measured by an ELISA plate reader.

The subject of another data set is PPARs. As to the kind of experiment: Reporter gene assay of endogenous PPARs activity in 3T3-L1 cells. Particulars: 3T3-L1 cells induced to differentiate for two days, transfected with reporter gene. Type of data set: cell-based, mouse. The method, then: (§1) The effect of prostaglandin on PPAR-γ activity in adipocytes was investigated. After treatment with a medium that induces cell differentiation, 3T3-L1 cells were treated from day 2 to 4 during adipogenesis with 14 μM 15-keto PGE2, 13,14-dihydro-15-keto PGE2, 15-keto PGF2α, 13,14-dihydro-15-keto PGF2α, or 4.5 μM of BRL49653 (a PPAR-γ agonist). See Forman et al., Cell (1995) 83:803-812. At day 6, aggregates of lipid droplets were stained with oil-red O for observation. […] After being induced to differentiate for two days, the 3T3-L1 cells were transfected with a reporter gene.
In general terms: Reporter assays use an easily measured gene product as a stand-in for the process of interest.

Another data set deals with PPAR-γ target genes. As to the kind of experiment: Protein expression of adipogenesis-specific PPAR-γ target genes in 3T3-L1 cells. The data set is classed as cell-based, mouse. From the text: Also examined was the ability of 15-keto PGE2 to induce protein expression of adipogenesis-specific, PPAR-γ target genes, i.e., IRS-1and -2.
In data set [2] the test system is 3T3-L1 cells. As to the kind of experiment: Adipogenesis in 3T3-L1 cells, oil-red O staining of lipid droplets. The data set is classed as cell-based, mouse. Particulars: 14 μM, day 2 to 4 during adipogenesis; stained at day 6. The method, then: as §1
Another data set deals with T2, PPAR-α (Homo sapiens, UniProt Q07869).
T2 construct: expressed in transfected cells; host or cells: 3T3-L1
T2 sequence (Q07869 239-466 limits assumed): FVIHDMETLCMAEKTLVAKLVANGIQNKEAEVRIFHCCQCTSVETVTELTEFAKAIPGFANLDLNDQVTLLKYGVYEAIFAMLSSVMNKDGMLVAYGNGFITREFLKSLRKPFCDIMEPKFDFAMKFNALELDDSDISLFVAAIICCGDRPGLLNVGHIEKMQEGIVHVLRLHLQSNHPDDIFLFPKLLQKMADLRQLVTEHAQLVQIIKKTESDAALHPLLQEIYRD
As to the kind of experiment: Luciferase reporter with PPAR ligand-binding domain fused to GAL4 DNA-binding domain in 3T3-L1 cells. Type of data set: cell-based. Particulars: relative to PPAR-γ activation. From the text: (§2) A luciferase reporter gene was transfected to 3T3-L1 cells together with the ligand-binding domain of […], PPAR-γ or […] fused to a yeast GAL4 DNA-binding domain.

Data set [3] deals with T3, PPAR-γ (Homo sapiens, UniProt P37231).
T3 construct: expressed in transfected cells; host or cells: 3T3-L1
T3 sequence (P37231 238-503 limits assumed): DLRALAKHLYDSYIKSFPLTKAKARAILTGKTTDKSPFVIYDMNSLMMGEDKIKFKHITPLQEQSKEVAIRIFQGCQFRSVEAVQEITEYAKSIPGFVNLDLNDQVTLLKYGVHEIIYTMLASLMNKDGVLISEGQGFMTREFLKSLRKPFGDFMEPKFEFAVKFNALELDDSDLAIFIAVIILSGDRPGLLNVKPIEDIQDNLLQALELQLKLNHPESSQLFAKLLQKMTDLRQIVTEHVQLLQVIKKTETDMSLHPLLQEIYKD
Described as above. The data set is classed as cell-based.
Text: as §2

Data set [4] relates to 3T3-L1 cells. In words: Glucose transport assay, uptake of 2-deoxy-D-[3H]glucose in differentiated 3T3-L1 cells. Type of data set: cell-based, mouse. The method, then:
3T3-L1cells were induced to differentiate in the same manner as described above. A glucose transport assay was performed by measuring uptake of 2-deoxy-D-[3H]glucose as described by Fingar et al. See Fingar et al., Endocrinology 134:728-735. 1.67 μM of the compound or 45 nM of a PPARs agonist, i.e., Avandia, was added to the cells. 10 μM cytochalasin-B was used to measure background glucose uptake levels.

In data set [5] the test system is Female diabetic mice (C57BLKS/J-m+/+Lep^db). In words: Blood glucose levels in diabetic mice. The data set is classed as in vivo, mouse. Particulars: 25 mg/kg intraperitoneally twice a day for two days; fasted 48th through 52nd hour. On the procedure:
The in vivo effect compound 45 on glucose metabolism was also investigated. Female diabetic mice were obtained from the Jackson Laboratory (C57BLKS/J-m+/+Lep^db, 12 to 13 weeks old). These mice were characterized as insulin-resistant and hyperglycemic. 25 mg/kg of 2,2′-dihydroxychalcone (n=8) or placebo (n=4, final concentration against body fluid: 0.5% DMSO/1% ethanol) was injected intraperitoneally to the mice twice a day for two days. The mice were then fasted from the 48th hour through 52nd hour after the first injection. Blood samples were collected from the retro-orbital sinus before the first injection, and every two hours after two days of treatment. Blood glucose levels were measured by an electrode-type blood glucose meter (HORIBA, AntSense II, Japan).

Data set [6] deals with PGR-2. As to the kind of experiment: RNA interference silencing of PGR-2 expression in 3T3-L1 cells. Particulars: transfection into 3T3-L1 fibroblasts or differentiating pre-adipocytes. Type of data set: cell-based, mouse. From the text:
(§3) An RNA interference (RNAi) approach was used to silence PGR-2 expression. Two small interfering RNA (siRNA) duplexes, i.e., […] (SEQ ID NO:7) and […] (SEQ ID NO:8), were annealed first and then introduced into 3T3-L1 fibroblasts or differentiating pre-adipocytes by transfection using oligofectamine (Invitrogen). Transfection of the siRNA duplexes reduced PGR-2 expression. In another experiment, transfection of the siRNA duplexes increased transcriptional activation of PPAR-γ. Thus, one can modulate PPAR-γ activity via silencing PGR-2 expression by RNA interference.

Data set [7] relates to PPAR-γ. In words: Transcriptional activation of PPAR-γ after siRNA transfection. The data set is classed as cell-based. Particulars: transfection of siRNA duplexes.
Text: as §3

T1 sequence (Q8VDQ1 whole entry): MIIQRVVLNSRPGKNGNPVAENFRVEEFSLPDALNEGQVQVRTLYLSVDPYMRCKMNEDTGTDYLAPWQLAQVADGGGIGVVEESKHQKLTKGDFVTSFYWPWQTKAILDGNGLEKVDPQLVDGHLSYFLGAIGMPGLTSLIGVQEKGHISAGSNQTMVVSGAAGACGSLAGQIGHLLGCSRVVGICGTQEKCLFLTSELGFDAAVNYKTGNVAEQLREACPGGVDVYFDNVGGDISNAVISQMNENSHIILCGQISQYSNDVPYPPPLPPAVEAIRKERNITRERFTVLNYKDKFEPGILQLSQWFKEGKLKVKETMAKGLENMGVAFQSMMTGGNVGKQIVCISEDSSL

For `CCCCC[C@H](O)/C=C/[C@@H]1[C@@H](CC(=O)CCCCC(=O)O)[C@@H](O)C[C@H]1O` [6-keto PGF1α], the “specific activity with PGR-2 (substrate specificity)” value (“specific activity” below) at PGR-2 [1] is listed as “no specific activity was detected”.

For the compound `CCCCCC(=O)CC[C@H]1[C@H](O)CC(=O)[C@@H]1C/C=C\CCCC(=O)O` [13,14-dihydro-15-keto PGE2], the “endogenous PPARs activity (reporter gene)” value (shortened to “endogenous PPARs activity”) with PPARs was “failed to increase PPARs activity”. In addition, the “specific activity” value at PGR-2 [1] is “no specific activity was detected”.

Take `CCCCCC(=O)CC[C@@H]1[C@@H](C/C=C\CCCC(=O)O)[C@@H](O)C[C@H]1O` [13,14-dihydro-15-keto PGF2α]: the “endogenous PPARs activity” value in the data set on PPARs is given as “failed to increase PPARs activity”.

For the compound `CCCCCC(=O)/C=C/[C@H]1[C@H](O)CC(=O)[C@@H]1CCCCCCC(=O)O` [15-keto PGE1, 15-keto prostaglandin E1], at PGR-2 [1], the “specific activity” value was “reacted specifically” and the “reduction catalyzed by PGR-2 (kinetics studies)” value (from here on “reduction catalyzed”) is “catalyzed reduction”.

Take `CCCCCC(=O)/C=C/[C@H]1[C@H](O)CC(=O)[C@@H]1C/C=C\CCCC(=O)O` [15-keto PGE2, 15-keto prostaglandin E2]: the “amount of IRS-1 protein” value with PPAR-γ target genes is listed as “did not increase”. The “PPAR-γ1 and PPAR-γ2 expression” value in the data set with PPAR-γ target genes (added with MIX, insulin and dexamethasone) is given as “significantly enhanced”. In addition, the “expression of aP2, an adipocyte-specific marker” value in the data set on PPAR-γ target genes (even in the absence of MIX) is listed as “strongly induced”. Further, the IRS-2 expression result in the data set on PPAR-γ target genes (in the presence of insulin and dexamethasone) is “enhanced the expression to a level similar to MIX”. Moreover, the “endogenous PPARs activity” value with PPARs is “enhanced endogenous PPARs activity significantly”. Moreover, the “adipogenesis (lipid droplets stained with oil-red O)” value in the data set with 3T3-L1 cells [2] is “effectively enhanced adipogenesis at a level similar to BRL49653”. Further, the “activation of PPAR-α (GAL4 fusion, luciferase reporter)” value at PPAR-α is recorded as “to a lesser degree”. Moreover, on PPAR-γ [3], the “activation of PPAR-γ (GAL4 fusion, luciferase reporter)” value is given as “activated”. The “reduction catalyzed” value on PGR-2 [1] is listed as “catalyzed reduction”.

On to `CCCCCC(=O)/C=C/[C@@H]1[C@@H](CCCCCCC(=O)O)[C@@H](O)C[C@H]1O` [15-keto PGF1α, 15-keto prostaglandin F1α], for which, at PGR-2 [1], the “specific activity” value was “reacted specifically” and the “reduction catalyzed” value is listed as “catalyzed reduction”.

Turning to `CCCCCC(=O)/C=C/[C@@H]1[C@@H](C/C=C\CCCC(=O)O)[C@@H](O)C[C@H]1O` [15-keto PGF2α, 15-keto prostaglandin F2α], in the data set with PPARs, the “endogenous PPARs activity” value was “enhanced endogenous PPARs activity significantly”. For the same compound, at PPAR-α, the “activation of PPAR-α (GAL4 fusion, luciferase reporter)” value is reported as “to a lesser degree”. The “activation of PPAR-γ (GAL4 fusion, luciferase reporter)” value at PPAR-γ [3] is on record as “activated”. Moreover, at PGR-2 [1], the “specific activity” value is given as “reacted specifically” and the “reduction catalyzed” value is listed as “catalyzed reduction”.

In the case of `CC(C)OC(=O)CCC/C=C\C[C@@H]1[C@@H](/C=C/C(=O)COc2cccc(C(F)(F)F)c2)[C@H](O)C[C@@H]1O` [15-keto fluprostenol isopropyl ester], at PGR-2 [1], the “reduction catalyzed” value is “catalyzed reduction”.

For `O=C(O)CCC/C=C\C[C@@H]1[C@@H](/C=C/C(=O)COc2cccc(C(F)(F)F)c2)[C@H](O)C[C@@H]1O` [15-keto fluprostenol], the “reduction catalyzed” value on PGR-2 [1] is “catalyzed reduction”.

For the compound `O=C(c1cc2cc(Cl)ccc2oc1=O)c1cc2cc(Cl)ccc2oc1=O` [Compound 27], in the data set on 3T3-L1 cells [4] (1.67 μM compound vs 45 nM Avandia), the “ability to enhance glucose uptake compared with Avandia” value is “comparable to that of Avandia”. In the data set on 3T3-L1 cells [4] (differentiated 3T3-L1 cells, 1.67 μM compound, 100 nM insulin to stimulate uptake), the “increase of glucose uptake” value is 30 folds.

With `O=C(/C=C/c1ccccc1O)c1ccccc1O` [Compound 45, 2,2′-dihydroxychalcone], in data set [5], the “blood glucose levels compared to placebo controls” value is given as “significant reduction”.

On to `CCCCC/C=C\C[C@@H](O)/C=C/C=C/C=C\[C@@H](O)CCCC(=O)O` [leukotriene B4], for which, on PGR-2 [1], the “specific activity” value is listed as “no specific activity was detected”.

As for “SEQ ID NO:7: small interfering RNA (siRNA) duplex gaguucaguuuaccggaug to silence PGR-2 expression (GAGUUCAGUUUACCGGAUG; chemistry not given here)”, the PGR-2 expression entry with PGR-2 [6] was “reduced”. In addition, the “transcriptional activation of PPAR-γ” value in the data set on PPAR-γ [7] is on record as “increased”.

“SEQ ID NO:8: small interfering RNA (siRNA) duplex guucaagugaggacucuuu to silence PGR-2 expression (GUUCAAGUGAGGACUCUUU; chemistry not given here)”: the PGR-2 expression result with PGR-2 [6] is recorded as “reduced”. Moreover, the “transcriptional activation of PPAR-γ” value in the data set on PPAR-γ [7] was “increased”.
